# Assay results taken from ChEMBL document CHEMBL4609992, “Discovery of novel small molecule induced selective degradation of the bromodomain and extra-terminal (BET) bromodomain protein BRD4 and BRD2 with cellular potencies” (Bioorg Med Chem, 2020).
# Activity calls are given as the source filed them. No cut-off for these calls is given here.
# Legend:
# MV4-11 [1] = test: Antiproliferative activity against human MV4-11 cells assessed as reduction in cell viability measured after 48 hrs by CellTiter-Glo assay; format: functional, cell-based; settings: MV4-11, 48 h
# MOLM-13 = test: Antiproliferative activity against human MOLM13 cells assessed as reduction in cell viability measured after 48 hrs by CellTiter-Glo assay; format: functional, cell-based; settings: MOLM-13, 48 h
# [2] = target: T1, Protein cereblon/Bromodomain-containing protein 4/Cullin-4A (Homo sapiens) (UniProt O60885+Q96SW2+Q13619); test: Protac activity at cereblon/cullin4A/BRD4 in human MV4-11 cells assessed as induction of BRD4 degradation at 100 nM measured after 1 to 4 hrs by Western blot analysis; format: cell-based
# [3] = target: T1, Protein cereblon/Bromodomain-containing protein 4/Cullin-4A (Homo sapiens); test: Protac activity at cereblon/cullin4A/BRD4 in human MV4-11 cells assessed as induction of BRD4 degradation at 500 nM measured after 18 hrs by Western blot analysis relative to control; format: cell-based
# [4] = target: T1, Protein cereblon/Bromodomain-containing protein 4/Cullin-4A (Homo sapiens); test: Protac activity at cereblon/cullin4A/BRD4 in human MV4-11 cells assessed as induction of BRD4 degradation at 100 nM measured after >= 8 hrs by Western blot analysis; format: cell-based
# [5] = target: T1, Protein cereblon/Bromodomain-containing protein 4/Cullin-4A (Homo sapiens); test: Protac activity at cereblon/cullin4A/BRD4 in human MV4-11 cells assessed as downregulation of c-Myc at 50 nM measured after 18 hrs by Western blot analysis; format: cell-based
# [6] = target: T2, Bromodomain-containing protein 4 (Homo sapiens, UniProt O60885); test: Binding affinity to recombinant human N-terminal His-tagged BRD4 BD1 (44 to 170 residues) expressed in Escherichia coli using H4K5AcK8Ac as substrate measured after 30 mins by AlphaScreen assay
# [7] = target: T2, Bromodomain-containing protein 4; test: Binding affinity to recombinant human N-terminal His-tagged BRD4 BD2 (349 to 460 residues) expressed in Escherichia coli measured after 30 mins by AlphaScreen assay
# MV4-11 [8] = test: Induction of apoptosis in human MV4-11 cells at 10 uM measured after 24 hrs by Annexin V-FITC/propidium iodide staining based FACScan flow cytometry relative to control; format: functional
# [9] = target: T2, Bromodomain-containing protein 4; test: Selectivity index, ratio of IC50 for BRD4 BD2 (unknown origin) to IC50 for BRD4 BD1 (unknown origin)
SMILES,IC50 (MV4-11 [1]),IC50 (MOLM-13),further results
Cc1sc2c(c1C)C(c1ccc(Cl)cc1)=N[C@@H](CC(=O)OC(C)(C)C)c1nnc(C)n1-2,0.0808 µM,–,–
COc1ccccc1S(=O)(=O)Nc1ccc2c3c(cc(CCC(=O)NCCCCCNc4cccc5c4C(=O)N(C4CCC(=O)NC4=O)C5=O)cc13)C(=O)N2C (centres undefined),0.0322 µM,0.177 µM,–
COc1ccccc1S(=O)(=O)Nc1ccc2c3c(cc(CCC(=O)NCCCNc4cccc5c4C(=O)N(C4CCC(=O)NC4=O)C5=O)cc13)C(=O)N2C (centres undefined),0.0252 µM,0.179 µM,Activity [2]: Active; Activity [3]: 100%; Activity [4]: Active; Activity [5]: Active
COC(=O)CCc1cc2c3c(ccc(NS(=O)(=O)c4ccccc4OC)c3c1)N(C)C2=O,–,–,IC50 [6]: 0.365 µM; IC50 [7]: 3.69 µM
COc1ccccc1S(=O)(=O)Nc1ccc2c3c(cc(CCC(=O)NCCCCCCNc4cccc5c4C(=O)N(C4CCC(=O)NC4=O)C5=O)cc13)C(=O)N2C (centres undefined),3.43 µM,> 10 µM,–
COc1ccccc1S(=O)(=O)Nc1ccc2c3c(cc(CCC(=O)NCCNc4cccc5c4C(=O)N(C4CCC(=O)NC4=O)C5=O)cc13)C(=O)N2C (centres undefined),1.65 µM,> 10 µM,–
COc1ccccc1S(=O)(=O)Nc1ccc2c3c(cccc13)C(=O)N2C,0.37 µM,3.37 µM,Activity (MV4-11 [8]): 86.07%; Ratio IC50 [9]: 50
